Each structure is given as a SMILES string. Structures can show the parent of a compound that is named as a salt. Where two headings read alike, the source gives them in different places. A value given as a limit tells only on which side of the number the result lay.

Here are results for six compounds from patent US9187474B2, “Raf inhibitor compounds” (Deciphera Pharmaceuticals, LLC, priority 2012, dated 2015).

One data set concerns the target A-Raf (Homo sapiens (Human), UniProt P10398). In words: ActivX KiNativ A375 whole cell lysate assay. The class given is binding. As for the experimental part: (§1) To further evaluate the enzymatic pan Raf activities of test compounds, they are evaluated in a KiNativ assay developed and carried out by ActivX Biosciences Inc. using whole cell lysates of A375 cells. A375 cells are human melanoma cells with a B-Raf V600E mutation.
(§2) Sample preparation: A375 cells from ATCC are lysed by sonication in commercially available lysis buffer, cleared by centrifugation, and the resulting supernatant gel filtered into a commercially available kinase reaction buffer containing 20 mM MnCl2. Final protein concentration of lysates are 10 mg/mL. 5 μL of each test compound is added from 100 μM, 10 μM, 1 μM, or 0.1 μM stock solutions in DMSO to 500 uL of lysate in duplicate for final concentrations of 1 μM, 0.1 μM, 0.01 μM, and 0.001 μM. 5 μL of DMSO is added to 500 μL of lysate in quadruplicate for controls. After 15 minute incubation, desthiobiotin-ATP acylphosphate probe is added to each sample to a final concentration of 5 μM and incubated with the samples for 10 minutes. Following the probe reaction, samples are prepared for targeted mass spectrum analysis using ActivX standard protocol. Briefly, samples are prepared for trypsin digestion (denature, reduce alkylate), digested with trypsin, and desthio-biotinylated peptides are enriched on streptavidin resin.
(§3) Data collection: Enriched peptide samples are analyzed by LC-MS/MS on a Thermo-LTQ Velos ion trap mass spectrometer using ActivX data collection methodology for A375 cells.
(§4) Data analysis: All quantitation is performed by extracting characteristic fragment ion signals from targeted MS/MS spectra and comparing signals in control and treated samples. ActivX software is used with manual validation/visual inspection performed as needed based on data flagging/filtering measures. All inhibition data points are visually verified, as are all data points showing variability outside of normal limits.

The target of a further data set is B-Raf (V600E) (Homo sapiens (Human), UniProt P15056, V600E). In words: ActivX KiNativ A375 whole cell lysate assay. The class given is binding. On the procedure:
as §1, §2, §3, §4

For another data set, the target named is C-Raf (Homo sapiens (Human), UniProt P04049). The experiment in a line: ActivX KiNativ A375 whole cell lysate assay. The class given is binding. As for the experimental part:
as §1, §2, §3, §4

The test system of data set [1] is A-Raf, B-RafV600E and C-Raf. The experiment in a line: ActivX KiNativ A375 whole cell lysate assay, summary over Raf isoforms. To be noted: A375 cells; summary of Table 1. The class given is binding, human. As for the experimental part:
as §1
as §2, with “Following the probe reaction, samples are prepared for targeted mass spectrum analysis using ActivX standard protocol. Briefly, samples are prepared for trypsin digestion (denature, reduce alkylate), digested with trypsin, and desthio-biotinylated peptides are enriched on streptavidin resin.” left out
as §3
Data analysis: All quantitation is performed by extracting characteristic fragment ion signals from targeted MS/MS spectra and comparing signals in control and treated samples. […]

For data set [2], the system named is phospho-ERK in HCT-116 cells. In words: HCT-116 cell pERK assay (AlphaScreen SureFire). Type of data set: cell-based. To be noted: for IC50: Homo sapiens, HCT-116 cells, B-Raf wild type, K-Ras mutation, 4 hours, read-out: IC50 reduction of phospho-ERK signal. As for the experimental part:
Examples of Formula I are tested against HCT-116 cells harboring wild type B-Raf and K-Ras mutation. The phospho-ERK activities are evaluated as described below.
HCT-116 cells (catalog #CCL-247) are obtained from the American Type Culture Collection (ATCC, Manassas, Va.). Briefly, cells are grown in McCoy's 5A supplemented with 10% characterized fetal bovine serum (Invitrogen, Carlsbad, Calif.), and 1% Penicillin/Streptomycin/L-Glutamine at 37 degrees Celsius, 5% CO2, and 95% humidity. Cells are allowed to expand until reaching 75-90% confluency at which point they are subcultured or harvested for assay use. HCT-116 cells suspended in complete media are added to 384-well tissue culture treated plates (3×10^5 cells/mL; 7,500 cells per well). The cells are incubated overnight at 37 degrees Celsius, 5% CO2, and 95% humidity. Next, test compound or DMSO diluted in complete media is added to the wells (0.25% final DMSO concentration). The plates are then incubated for 4 hours at 37 degrees Celsius, 5% CO2, and 95% humidity. Following compound incubation, the cells are lysed at 4° C. for 20 minutes with shaking Cell lysates are centrifuged and the supernatant is transferred to a new plate. An aliquot of each lysate is transferred to a white 384-well assay plate. Using the AlphaScreen SureFire pERK kit (Perkin-Elmer, Waltham, Mass.), an acceptor bead mixture is added to each well and incubated for 2 h at room temperature in the dark. A donor bead mixture is then added to each well and incubated for 2 h at room temperature in the dark. Plates are read using a Synergy2 plate reader (Biotek, Winooski, Vt.) in Plate Mode with Timing Control. Read: (F)1: excitation: 680/30 nm, emission: Plug. 2: Excitation: Plug, emission: 570/100 nm. Top mirror 635 nm. Data is analyzed using Prism software (Graphpad, San Diego, Calif.) to calculate IC50 values and Excel software (Microsoft, Redmond, Wash.) to calculate stimulation compared to control.
In general terms: Alpha assays give light when donor and acceptor beads are brought close together.

Data set [3] deals with phospho-ERK in A375 (B-Raf V600E) xenograft. The experiment in a line: A375 mouse xenograft pharmacodynamic assay (tumor pERK by ELISA). The class given is in vivo, mice. To be noted: A-375, 20 mg/kg oral, 2 h post dose, vs vehicle, read-out: Measured pERK inhibition 2 h post dose. As for the experimental part:
To evaluate the in vivo pharmacodynamic (PD) effects of compounds of Formula I, an A375 (B-Raf V600E) xenograft model is employed. Briefly, 10×10^6 A375 tumor cells (ATCC) are prepared in a 1:1 matrigel mix (0.2 mL total volume) and implanted by subcutaneous injection in hind leg of nude female mice. A total of 4 mice each for each dosing group are employed. Treatment is initiated with oral administration (gavage) of test compound or vehicle (20% captisol, 25 mM phosphate, pH2.0) in 0.2 mL volume when average tumor size reaches approximately 300 mg. After a fixed time interval, the tumors are harvested and the phospho-ERK levels are measured by ELISA (Enzyme-linked immunosorbent assay). Treated groups are compared to the vehicle control group to calculate % inhibition.
(In general: An ELISA detects its analyte on a solid surface through an enzyme-linked reagent.)

For a further data set, the system named is A375 xenograft tumor. The experiment in a line: A375 mouse xenograft efficacy model. Type of data set: in vivo, mice. To be noted: oral, 21 days. On the procedure: (§5) To further evaluate in vivo activity of compounds of Formula I, an A375 xenograft tumor model is utilized. Briefly, 10×10^6 cells in a 1:1 matrigel mix (0.2 mL total volume) are implanted by subcutaneous injection in the hind leg of nude female mice. A total of 8-10 mice in each group are used. Treatment is initiated with oral administration (gavage) of a test compound or vehicle (20% captisol, 25 mM phosphate, pH2.0) in 0.2 mL volume when tumor size reaches approximately 300-500 mg. Test compound is orally dosed twice or thrice a day for 21 days. Tumor growth and body weight are monitored over time to evaluate efficacy and signs of toxicity. Bidimensional measurements of tumors are performed twice a week and tumor volumes are calculated based on the following formula: (Tumor Volume)=[(L)×(W^2)×(π/6)] where L is mid-axis length and W is mid-axis width. Tumor volume data are transformed to a log scale to equalize variance across time and treatment groups. The log volume data are analyzed with a two-way repeated measures analysis of variance by time and treatment using the MIXED procedures in SAS software (version 8.2). The correlation model for the repeated measures is spatial power. Treated groups are compared to the control group at each time point. The MIXED procedure is also used separately for each treatment group to calculate adjusted means and standard errors at each time point. Both analyses account for the autocorrelation within each animal and the loss of data that occurs when animals with large tumors are removed from the study early. The adjusted means and standard errors are plotted for each treatment group versus time.

The nature of data set [4]: Body weight in A375 mouse xenograft efficacy model. Type of data set: in vivo, mice. To be noted: oral, 21 days. As for the experimental part:
as §5

Data set [5] deals with A375res cells.
Excerpt: (§6) A vemurafenib-resistant cell line is generated by chronic treatment of the human melanoma cell line A375 (ATCC) harboring the B-Raf V600E mutation with increasing concentrations PLX4720.
The test system of data set [6] is A375res cells. The experiment in a line: Proliferation assay in vemurafenib-resistant A375res melanoma cells. To be noted: for IC50: Homo sapiens, 72 h.
Excerpt: as §6
The test system of the next data set is A375 cells. The experiment in a line: A375 cell proliferation assay (72 hour). Type of data set: cell-based. To be noted: Homo sapiens, A-375, parental A375 cells.
The mark [7] stands for this setting: twice a day at 12 mg/kg or thrice per day at 8 or 12 mg/kg.

B-Raf (V600E), sequence (P15056 whole entry V600E): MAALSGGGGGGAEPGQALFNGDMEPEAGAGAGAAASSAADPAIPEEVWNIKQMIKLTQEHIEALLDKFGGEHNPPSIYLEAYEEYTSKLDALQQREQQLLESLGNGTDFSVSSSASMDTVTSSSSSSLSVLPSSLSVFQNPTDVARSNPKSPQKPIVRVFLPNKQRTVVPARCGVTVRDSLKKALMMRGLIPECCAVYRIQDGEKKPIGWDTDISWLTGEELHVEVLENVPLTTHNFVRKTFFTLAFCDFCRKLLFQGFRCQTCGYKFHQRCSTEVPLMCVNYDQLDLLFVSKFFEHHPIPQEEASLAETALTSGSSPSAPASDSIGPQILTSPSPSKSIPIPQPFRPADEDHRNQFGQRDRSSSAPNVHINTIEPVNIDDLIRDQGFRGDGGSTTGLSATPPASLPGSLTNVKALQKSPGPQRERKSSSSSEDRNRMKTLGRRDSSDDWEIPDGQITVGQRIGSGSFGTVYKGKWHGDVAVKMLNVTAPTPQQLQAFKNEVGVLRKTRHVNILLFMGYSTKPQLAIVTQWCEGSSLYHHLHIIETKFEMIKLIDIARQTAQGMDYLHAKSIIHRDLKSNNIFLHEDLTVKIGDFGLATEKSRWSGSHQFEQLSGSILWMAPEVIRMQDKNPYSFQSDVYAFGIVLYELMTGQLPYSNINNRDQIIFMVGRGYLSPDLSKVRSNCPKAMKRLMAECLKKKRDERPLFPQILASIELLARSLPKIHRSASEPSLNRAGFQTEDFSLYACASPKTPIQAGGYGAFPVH
C-Raf, sequence (P04049 whole entry): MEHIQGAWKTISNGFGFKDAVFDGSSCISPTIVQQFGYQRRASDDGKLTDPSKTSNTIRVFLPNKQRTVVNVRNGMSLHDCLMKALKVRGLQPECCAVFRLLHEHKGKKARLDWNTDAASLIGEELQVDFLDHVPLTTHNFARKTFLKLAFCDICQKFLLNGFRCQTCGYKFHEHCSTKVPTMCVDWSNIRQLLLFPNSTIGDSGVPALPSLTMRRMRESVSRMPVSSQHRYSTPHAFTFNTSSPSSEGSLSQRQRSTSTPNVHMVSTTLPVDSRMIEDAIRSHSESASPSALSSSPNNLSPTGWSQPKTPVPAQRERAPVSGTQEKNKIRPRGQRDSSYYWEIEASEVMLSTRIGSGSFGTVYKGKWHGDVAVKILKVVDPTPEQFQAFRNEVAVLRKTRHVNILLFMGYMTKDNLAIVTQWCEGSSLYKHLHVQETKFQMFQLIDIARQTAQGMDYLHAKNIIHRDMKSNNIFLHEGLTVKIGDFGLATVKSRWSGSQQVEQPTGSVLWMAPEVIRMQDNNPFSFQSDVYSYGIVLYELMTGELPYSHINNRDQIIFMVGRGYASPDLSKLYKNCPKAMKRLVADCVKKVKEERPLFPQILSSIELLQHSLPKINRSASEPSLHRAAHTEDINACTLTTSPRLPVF
A-Raf, sequence (P10398 whole entry): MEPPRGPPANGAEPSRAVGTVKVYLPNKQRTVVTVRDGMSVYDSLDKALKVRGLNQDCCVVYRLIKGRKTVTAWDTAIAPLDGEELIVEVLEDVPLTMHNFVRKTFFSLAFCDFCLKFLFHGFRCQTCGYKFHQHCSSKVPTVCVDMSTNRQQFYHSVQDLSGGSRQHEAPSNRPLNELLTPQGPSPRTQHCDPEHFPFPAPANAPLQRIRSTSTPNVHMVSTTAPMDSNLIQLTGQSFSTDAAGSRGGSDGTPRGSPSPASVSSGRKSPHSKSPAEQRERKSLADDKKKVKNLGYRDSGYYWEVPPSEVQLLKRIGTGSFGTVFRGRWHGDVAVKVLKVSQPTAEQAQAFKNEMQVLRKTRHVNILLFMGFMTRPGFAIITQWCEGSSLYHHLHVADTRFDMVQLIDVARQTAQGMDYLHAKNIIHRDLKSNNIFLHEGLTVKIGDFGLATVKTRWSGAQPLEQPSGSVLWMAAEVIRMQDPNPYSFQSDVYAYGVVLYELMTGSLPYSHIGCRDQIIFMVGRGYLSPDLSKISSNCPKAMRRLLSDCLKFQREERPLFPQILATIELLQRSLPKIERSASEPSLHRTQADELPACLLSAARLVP
Description for A375 cells: A375 cells (catalog #CRL-1619) are obtained from the American Type Culture Collection (ATCC, Manassas, Va.). Briefly, cells are grown in DMEM High Glucose supplemented with 10% characterized fetal bovine serum (Invitrogen, Carlsbad, Calif.) and 1% Penicillin/Streptomycin/L-Glutamine at 37 degrees Celsius, 5% CO2, and 95% humidity. Cells are allowed to expand until reaching 70-95% confluency at which point they are subcultured or harvested for assay use. A serial dilution of test compound is dispensed into a 384-well black clear bottom plate in triplicate. Six hundred twenty-five cells are added per well in 50 μL complete growth medium in the 384-well plate. Plates are incubated for 67 hours at 37 degrees Celsius, 5% CO2, and 95% humidity. […] Plates are read on a Synergy2 reader (Biotek, Winooski, Vt.) using an excitation of 540 nm and an emission of 600 nm. Data is analyzed using Prism software (Graphpad, San Diego, Calif.) to calculate IC50 values.

`CNc1cc2nc(C)c(-c3cc(NC(=O)NCCC(C)(C)C)c(F)cc3F)cc2cn1` [Example 18, 1-(2,4-difluoro-5-(2-methyl-7-(methylamino)-1,6-naphthyridin-3-yl)phenyl)-3-(3,3-dimethylbutyl)urea]: the IC50 was 0.031 µM at A-Raf; 0.035 µM against B-Raf (V600E) (first B-Raf (V600E) column); 0.037 µM at B-Raf (V600E) (second B-Raf (V600E) column); 0.02 µM against C-Raf; under 0.17 µM in data set [1]; 0.002 to 0.096 µM in data set [2]. In addition, the inhibition in vivo at 20 mg/kg in data set [3] stood at 93%. Besides, in the data set with A375 xenograft tumor (setting [7]), the tumor growth entry was “tumor growth inhibition”. Moreover, the “animal body weight loss” value in data set [4] (setting [7]) is “minimal animal body weight loss”.
For the compound `CNc1cc2nc(C)c(-c3cc(NC(=O)NCCC(C)(C)F)c(F)cc3C)cc2cn1` [Example 76, 1-(3-fluoro-3-methylbutyl)-3-(2-fluoro-4-methyl-5-(2-methyl-7-(methylamino)-1,6-naphthyridin-3-yl)phenyl)urea], the IC50 at A-Raf was 0.12 µM; against B-Raf (V600E) (first B-Raf (V600E) column), 0.016 µM; at B-Raf (V600E) (second B-Raf (V600E) column) it was 0.022 µM; on C-Raf, 0.17 µM; in data set [1] it was under 0.17 µM; in data set [2] it was 0.002 to 0.096 µM. The IC50 in the data set with A375res cells [6] (read-out: absolute IC50 values) was 0.009 to 0.504 µM. Besides, the tumor growth entry with A375 xenograft tumor (twice a day at 10 or 30 mg/kg) was “tumor growth inhibition and tumor growth regression”. In addition, the “animal body weight loss” value in data set [4] (twice a day at 10 or 30 mg/kg) is recorded as “minimal animal body weight loss”. The “IC50 shift A375 to A375res” value in the data set on A375res cells [5] is reported as 0.5-4.9 fold.
As to `Cc1cc(F)c(NC(=O)NCCC(C)(C)F)cc1-c1cc2cnc(N)cc2nc1C` [Example 79, 1-(5-(7-amino-2-methyl-1,6-naphthyridin-3-yl)-2-fluoro-4-methylphenyl)-3-(3-fluoro-3-methylbutyl)urea], the IC50 was 0.002 to 0.096 µM in [2] and 0.009 to 0.504 µM in the data set with A375res cells [6] (read-out: absolute IC50 values). For the same compound, the inhibition in vivo at 20 mg/kg in data set [3] was 87%. Further, the tumor growth result in the data set on A375 xenograft tumor (twice a day at 15 or 30 mg/kg) was “tumor growth inhibition”. Moreover, in data set [4] (twice a day at 15 or 30 mg/kg), the “animal body weight loss” value is “minimal animal body weight loss”. Moreover, the “IC50 shift A375 to A375res” value in the data set with A375res cells [5] is 0.5-4.9 fold.
In the case of `CNc1cc2nc(C)c(-c3cc(NC(=O)NCCC(C)(C)OC)c(F)cc3C)cc2cn1` [Example 92, 1-(2-fluoro-4-methyl-5-(2-methyl-7-(methylamino)-1,6-naphthyridin-3-yl)phenyl)-3-(3-methoxy-3-methylbutyl)urea hydrochloride], the IC50 in data set [2] lay in the range of 0.002 to 0.096 µM; in the data set with A375res cells [6] (read-out: absolute IC50 values), 0.009 to 0.504 µM. For the same compound, the inhibition in vivo at 20 mg/kg in data set [3] turned out to be 77%. In addition, the “IC50 shift A375 to A375res” value in the data set with A375res cells [5] is reported as 0.5-4.9 fold.
On to `CCCS(=O)(=O)Nc1ccc(F)c(C(=O)c2c[nH]c3ncc(Cl)cc23)c1F` [PLX4720, N-[3-(5-chloro-1H-pyrrolo[2,3-b]pyridine-3-carbonyl)-2,4-difluorophenyl]propane-1-sulfonamide, reference compound], for which the IC50 with A375 cells is 0.369 µM; in the data set with A375res cells [6] (read-out: IC50 proliferation) it was over 10 µM. Besides, the “IC50 shift A375 to A375res” value with A375res cells [6] (72 hour proliferation assay) is on record as “more than 27 fold”.
For the compound `CCCS(=O)(=O)Nc1ccc(F)c(C(=O)c2c[nH]c3ncc(-c4ccc(Cl)cc4)cc23)c1F` [vemurafenib, reference compound], the IC50 is 0.175 µM in the data set with A375 cells and over 10 µM in the data set with A375res cells [6] (read-out: IC50 proliferation). Moreover, the “effect on pERK signal” value in data set [2] (at concentrations up to about 3 uM) was “stimulates the pERK signal”. For the same compound, the “IC50 shift A375 to A375res” value with A375res cells [5] was “more than 57 fold”.
